The values that follow come from patent publication US20220281825A1 (priority 2016, published 2022).

Series [1] has as its system JUNV-p. Description: organism not typed. The series is classed as cell-based, Junin (JUNV). The following applies: Vero, 24 h, read-out: JUNV-p EC50 (nM).
The subject of series [2] is MACV-p. Description: organism not typed. The series is classed as cell-based, Machupo (MACV). Conditions: Vero, 24 h, read-out: MACV-p EC50 (nM).
Series [3] has as its system TCRV-p. The series can be described thus: organism not typed. The series is classed as cell-based. The following applies: Vero, 24 h, read-out: TCRV-p EC50 (nM).
Series [4] relates to LASV-p. Description: organism not typed. The series is classed as cell-based, Lassa (LASV). Conditions: Vero, 24 h, read-out: LASV-p EC50 (nM).
Series [5] is described as follows: in vitro. The following applies: African green monkey.

The structures appear in SMILES notation.

As to `COc1ccc(-n2cnc3ccc(-c4ccc(C(C)C)cc4)cc32)cc1` [Example A2, 1-(4-methoxyphenyl)-6-[4-(propan-2-yl)phenyl]-1H-1,3-benzodiazole], the concentration for a half-maximal effect (EC50) in series [1] is over 100 nM; in series [2], over 100 nM; in series [3], over 100 nM; in series [4], 6.6 nM. The molecule also had a CC50 in series [5] of 25600 nM.
As to `COc1ccc(-c2ccc3ncn(-c4ccc(OC)cc4)c3c2)cc1` [Example A3, 1,6-bis(4-methoxyphenyl)-1H-1,3-benzodiazole], the EC50 in series [1] was over 25 nM; in series [2] it was over 25 nM; in series [3], over 25 nM; in series [4] it was 7.6 nM. This molecule gave a CC50 in series [5] of under 300 nM.
In the case of `COc1ccc(-n2cnc3ccc(-c4ccc(C#N)cc4)cc32)cc1` [Example A4, 4-[1-(4-methoxyphenyl)-1H-1,3-benzodiazol-6-yl]benzonitrile], the EC50 in series [1], in series [2], in series [3] and in series [4] was over 25 nM in each case. For the same molecule, the CC50 in series [5] is under 300 nM.
Consider `COc1ccc(-n2cnc3ccc(-c4ccccc4OC)cc32)cc1` [Example A5, 6-(2-methoxyphenyl)-1-(4-methoxyphenyl)-1H-1,3-benzodiazole], for which the EC50 in series [1], in series [2], in series [3] and in series [4] was over 25 nM throughout. For the same molecule, the CC50 in series [5] was under 300 nM.
`COc1ccc(-n2cnc3ccc(-c4cccc(OC)c4)cc32)cc1` [Example A6, 6-(3-methoxyphenyl)-1-(4-methoxyphenyl)-1H-1,3-benzodiazole]: the EC50 in series [1], in series [2], in series [3] and in series [4] was over 25 nM throughout. Further, the CC50 in series [5] turned out to be 9720 nM.
In the case of `COc1ccc(-n2cnc3ccc(-c4ccc(CO)cc4)cc32)cc1` [Example A10, {4-[1-(4-methoxyphenyl)-1H-1,3-benzodiazol-6-yl]phenyl}methanol], the EC50 was over 25 nM in series [1], over 25 nM in series [2], over 25 nM in series [3] and 21.8 nM in series [4]. This molecule also displayed a CC50 in series [5] of 4560 nM.
For `COc1ccc(-n2cnc3ccc(-c4ccc(O)cc4)cc32)cc1` [Example A13, 4-[1-(4-methoxyphenyl)-1H-1,3-benzodiazol-6-yl]phenol], the EC50 in series [1] was over 25 nM; in series [2], over 25 nM; in series [3] it was over 25 nM; in series [4], 5 nM. The CC50 in series [5] was determined as 1270 nM.
In the case of `COc1ccc(-n2cnc3ccc(-c4ccc(C(C)=O)cc4)cc32)cc1` [Example A14, 1-{4-[1-(4-methoxyphenyl)-1H-1,3-benzodiazol-6-yl]phenyl}ethan-1-one], the 50% effective concentration (EC50) in series [1] is over 25 nM; in series [2], over 25 nM; in series [3] it was over 25 nM; in series [4], 7.4 nM. In series [5], this molecule showed a CC50 of 1950 nM.
For `COc1ccc(-n2cnc3ccc(-c4ccc(N5CCCCC5)cc4)cc32)cc1` [Example A15, 1-(4-methoxyphenyl)-6-[4-(piperidin-1-yl)phenyl]-1H-1,3-benzodiazole], the EC50 stood at 2.23 nM in series [1], 24.9 nM in series [2], 29.6 nM in series [3] and 14.7 nM in series [4]. Moreover, the CC50 in series [5] turned out to be 12900 nM.
Taken in the same sequence, the figures for `CC(C)Oc1ccc(-n2cnc3ccc(-c4ccc(N5CCOCC5)cc4)cc32)cc1` [Example A21, 6-[4-(morpholin-4-yl)phenyl]-1-[4-(propan-2-yloxy)phenyl]-1H-1,3-benzodiazole] were 3.5 nM, 14.4 nM, over 25 nM, 3.07 nM and 5220 nM.
Taken in the same sequence, the figures for `CC(C)Oc1ccc(-c2ccc3ncn(-c4ccc5[nH]ccc5c4)c3c2)cc1` [Example A27, 1-(1H-indol-5-yl)-6-[4-(propan-2-yloxy)phenyl]-1H-1,3-benzodiazole] were 0.39 nM, 0.38 nM, 2.57 nM, 0.6 nM and 3860 nM.
Taken in the same sequence, the figures for `CC(C)Oc1ccc(-n2cnc3ccc(-c4ccc5[nH]ccc5c4)nc32)cc1` [Example B3, 5-{3-[4-(propan-2-yloxy)phenyl]-3H-imidazo[4,5-b]pyridin-5-yl}-1H-indole] were 1.79 nM, 10.3 nM, 27.7 nM, 1.01 nM and over 100000 nM.
In the case of `CC(=O)c1ccc(-c2ccc3ncn(-c4ccc(OC(C)C)cc4)c3n2)cc1` [Example B4, 1-(4-{3-[4-(propan-2-yloxy)phenyl]-3H-imidazo[4,5-b]pyridin-5-yl}phenyl)ethan-1-one], the EC50 in series [1] turned out to be 4.31 nM; in series [2], 18.6 nM; in series [3], 14.9 nM; in series [4], 0.956 nM. In series [5], this molecule displayed a CC50 of 19700 nM.
The like results for `CC(C)Oc1ccc(-n2cnc3cnc(-c4ccc5[nH]ccc5c4)cc32)cc1` [Example B7, 5-{1-[4-(propan-2-yloxy)phenyl]-1H-imidazo[4,5-c]pyridin-6-yl}-1H-indole] were, in that order, 16.2 nM, 24.1 nM, over 25 nM, 8.18 nM and 13900 nM.
Regarding `CC(C)Oc1ccc(-n2cnc3cnc(-c4ccc(C(C)(C)O)cc4)nc32)cc1` [Example B9, 2-(4-{9-[4-(propan-2-yloxy)phenyl]-9H-purin-2-yl}phenyl)propan-2-ol], the EC50 is 11.9 nM in series [1], 29.7 nM in series [2], over 25 nM in series [3] and 19.7 nM in series [4]. Besides, in series [5], the CC50 turned out to be 27700 nM.
As to `CC(C)Oc1ccc(-n2cnc3cnc(-c4ccc5[nH]ccc5c4)nc32)cc1` [Example B11, 2-(1H-indol-5-yl)-9-[4-(propan-2-yloxy)phenyl]-9H-purine], the EC50 in series [1] was 25 nM; in series [2] it was 25 nM; in series [3], over 25 nM; in series [4] it was 6.4 nM. In series [5], this molecule returned a CC50 of 24200 nM.
In the case of `CC(=O)c1ccc(-c2ccc3nnn(-c4ccc(OC(C)C)cc4)c3c2)cc1` [Example B14, 1-(4-{1-[4-(propan-2-yloxy)phenyl]-1H-1,2,3-benzotriazol-6-yl}phenyl)ethan-1-one], the EC50 in series [1] was 1.36 nM; in series [2], 15.4 nM; in series [3], over 25 nM; in series [4], 1.05 nM. Also, the CC50 in series [5] is 7390 nM.
Taken in the same sequence, the figures for `CC(C)Oc1ccc(-c2cnc3ccc(-c4ccc(C(F)F)cc4)cn23)cc1` [Example C5, 6-[4-(difluoromethyl)phenyl]-3-[4-(propan-2-yloxy)phenyl]imidazo[1,2-a]pyridine] were 9.09 nM, 31.4 nM, over 25 nM, 4.1 nM and 4690 nM.
Taken in the same sequence, the figures for `CC(C)Oc1ccc(-c2cnc3ccc(-c4ccc5[nH]ncc5c4)cn23)cc1` [Example C10, 5-{3-[4-(propan-2-yloxy)phenyl]imidazo[1,2-a]pyridin-6-yl}-1H-indazole] were 19 nM, 28.9 nM, over 25 nM, 4.61 nM and over 100 nM.
For the molecule `CC(C)Oc1ccc(-c2cnc3ccc(-c4ccc(C5(O)COC5)cc4)cn23)cc1` [Example C28, 3-(4-{3-[4-(propan-2-yloxy)phenyl]imidazo[1,2-a]pyridin-6-yl}phenyl)oxetan-3-ol], the half-maximal effective concentration (EC50) in series [1] was 14.9 nM; in series [2], over 25 nM; in series [3], over 25 nM; in series [4], 17.3 nM. In series [5], the CC50 is over 100000 nM.
Regarding `COCCOc1ccc(-c2cnc3ccc(-c4ccc(OC(C)C)cc4)cn23)cc1` [Example C42, 3-[4-(2-methoxyethoxy)phenyl]-6-[4-(propan-2-yloxy)phenyl]imidazo[1,2-a]pyridine], the EC50 in series [1] stood at 2.6 nM; in series [2], 23.1 nM; in series [3], 11.7 nM; in series [4], 3.08 nM. In series [5], the CC50 is 5360 nM.
With `CC(C)Oc1ccc(-c2ccc3ncc(-c4ccc(C5(O)CC5)cc4)n3c2)cc1` [Example C44, 1-(4-{6-[4-(propan-2-yloxy)phenyl]imidazo[1,2-a]pyridin-3-yl}phenyl)cyclopropan-1-ol], the EC50 worked out at 0.07 nM in series [1], 0.32 nM in series [2], 0.135 nM in series [3] and 0.23 nM in series [4]. This molecule showed a CC50 in series [5] of over 100 nM.
Take `CC(C)Oc1ccc(-n2ncc3ccc(-c4ccc5[nH]ccc5c4)cc32)cc1` [Example D2, 6-(1H-indol-5-yl)-1-[4-(propan-2-yloxy)phenyl]-1H-indazole]: the 50% effective concentration (EC50) in series [1] was 17.8 nM; in series [2] it was 22.5 nM; in series [3], over 25 nM; in series [4] it was 7.99 nM. Also, the CC50 in series [5] was found to be 4340 nM.
The like results for `CC(=O)c1ccc(-c2ccc3cnn(-c4ccc(OC(C)C)cc4)c3c2)cc1` [Example D3, 1-(4-{1-[4-(propan-2-yloxy)phenyl]-1H-indazol-6-yl}phenyl)ethan-1-one] were, in that order, 20.2 nM, 15.5 nM, over 25 nM, 7.04 nM and 15900 nM.
Taken in the same sequence, the figures for `CC(C)Oc1ccc(-n2ccc3ccc(-c4ccc5[nH]ccc5c4)cc32)cc1` [Example D5, 6-(1H-indol-5-yl)-1-[4-(propan-2-yloxy)phenyl]-1H-indole] were 27.8 nM, over 25 nM, over 25 nM, 12.5 nM and 5.87 nM.

What is called EC50 is the concentration giving half of the maximal effect.
